According to patent US20160271090A1, “FRATAXIN ENHANCER” (TOKYO UNIVERSITY OF AGRICULTURE, priority 2013, published 2016):

System: frataxin protein in human normal fibroblast strain WI-38
Experiment: Western blot of frataxin protein in WI-38 cells cultured with ALA
Assay type: cell-based
Conditions: ALA 2 mM for 2 hours in DMEM without FBS, then 24 hours in DMEM with 10% FBS, compared to Sample 2 (medium without ALA)
Procedure: • (i) Human normal fibroblast strain WI-38 was cultured in Dulbecco's modified Eagle medium (DMEM) comprising 10% fetal bovine serum (FBS) under 5% CO2. (ii) 5-Aminolevulinic acid (ALA) was added at a final concentration of 2 mM to DMEM without FBS, and cells of (i) were cultured in said medium at 37° C. for 2 hours to allow ALA to be incorporated. (iii) Then, the cells were transferred to DMEM containing 10% FBS and cultured at 37° C. for 24 hours. (iv) The cells were collected by trypsin treatment, washed with phosphate buffered saline (PBS), and then suspended in SDS sample buffer (50 mM Tris-HCl, pH6.8, 2% SDS, 2.5%-mercaptoethanol, 10% glycerol, and 0.01% bromophenol blue), and heated at 100° C. for 5 minutes to allow lysis. […] In this Example, the said cell lysate is referred to as “Sample 2.” Samples 1 and 2 were subjected to 12% SDS-polyacrylamide electrophoresis, and Western blot analysis employing an anti-human frataxin antibody (from Santa Cruz Biotechnology, cat. #sc-25820) and an HRP-labeled anti-rabbit IgG secondary antibody (from GE Healthcare, cat. #N[MUT]) was performed by conventional means. […]

NCC(=O)CCC(=O)O [ALA, 5-aminolevulinic acid]
amount of frataxin protein (Western blot, FIG. 1): clear increase
